How the values were obtained:
[1] = system: apoE-deficient mice; conditions: cited from earlier work
[2] = system: biomarkers for myocardial infarction risk; conditions: clinical trials; cited from earlier work
[3] = system: apoE/LDL-R double knockout mice; conditions: oral dosing, high-fat diet from 2 months of age to 6 months; cited from earlier work
[4] = system: ApoE−/−xCD4dnTβRII mice; conditions: via infusion, treated for four weeks; cited from earlier work
[5] = system: human glomerulonephritis; conditions: clinical trial; cited from earlier work
[6] = target: T1, recombinant human FLAP protein (Homo sapiens, UniProt P20292); experiment: FLAP binding assay, displacement of iodinated (125I) FLAP inhibitor, Scintillation Proximity Assay format; conditions: [125I]L-691,831 probe, membrane protein from sf9 cells; read-out: hFLAP binding IC50
T1 construct: made in house; host or cells: Sf9 insect cells (membrane fraction, 100,000 x g pellet)
T1 sequence (P20292 1-161): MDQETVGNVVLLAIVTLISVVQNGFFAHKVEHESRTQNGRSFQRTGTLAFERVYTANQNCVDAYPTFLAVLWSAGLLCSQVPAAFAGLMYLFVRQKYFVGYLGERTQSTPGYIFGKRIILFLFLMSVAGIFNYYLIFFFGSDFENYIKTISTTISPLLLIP

| IC50 [6] | Compound | other results |
| --- | --- | --- |
| – | C[C@H](C#Cc1ccc(Cc2ccc(F)cc2)s1)N(O)C(N)=O [VIA-2291] | effect on atherosclerosis [1]: attenuate atherosclerosis |
| – | O=C(O)[C@@H](c1ccc(OCc2ccc3ccccc3n2)cc1)C1CCCC1 [DG-031] | effect on biomarkers for myocardial infarction risk [2]: dose-dependent suppression of several biomarkers |
| – | CC(C)c1ccc2c(c1)c(SC(C)(C)C)c(CC(C)(C)C(=O)O)n2Cc1ccc(Cl)cc1 [MK-886] | decrease in plaque coverage in the aorta [3]: 56%; decrease in plaque coverage in the aortic root [3]: 43%; decrease in plaque area in the aortic root [4]: ~40% |
| – | CC(C)(C)Sc1c(CC(C)(C)C(=O)O)n(Cc2ccc(Cl)cc2)c2ccc(OCc3ccc4ccccc4n3)cc12 [MK-591] | effect on proteinuria [5]: reduce proteinuria |
| 1.2 nM | Cc1noc(-c2ccccc2-c2nc3cc(-c4cnc5[nH]ccc5c4)ccc3n2C(C)(C)C)n1 [1-tert-Butyl-2-[2-(3-methyl-1,2,4-oxadiazol-5-yl)-phenyl]-5-(1H-pyrrolo[2,3-b]pyridin-5-yl)-1H-benzimidazole] | – |
| 2.5 nM | Cc1nc(C)n(-c2ccc(C#N)cc2-c2nc3cc(-c4cnc(N)nc4)ccc3n2C(C)(C)C)n1 [3-[5-(2-Amino-pyrimidin-5-yl)-1-tert-butyl-1H-benzoimidazol-2-yl]-4-(3,5-dimethyl-[1,2,4]triazol-1-yl)-benzonitrile] | – |
| 3.1 nM | CC(C)(C)n1c(-c2cc(C#N)ccc2-n2cncn2)nc2cc(-c3cnc(N)nc3)ccc21 [3-[5-(2-Amino-pyrimidin-5-yl)-1-tert-butyl-1H-benzimidazol-2-yl]-4-1,2,4-triazol-1-yl-benzonitrile] | – |
| 10.4 nM | CC(C)(C)n1c(-c2cc(CO)ccc2-n2cncn2)nc2cc(-c3cnc(N)nc3)ccc21 [{3-[5-(2-Amino-pyrimidin-5-yl)-1-tert-butyl-1H-benzoimidazol-2-yl]-4-[1,2,4]triazol-1-yl-phenyl}-methanol] | – |
| 6.9 nM | Cc1ncnn1-c1ccc(Cl)cc1-c1nc2cc(-c3cnc(N)nc3)ccc2n1C(C)(C)C [5-{1-tert-butyl-2-[5-chloro-2-(5-methyl-1,2,4-triazol-1-yl)-phenyl]-1H-benzimidazol-5-yl}-pyrimidin-2-ylamine] | – |
| 1.7 nM | COc1ccc(-n2cncn2)c(-c2nc3cc(-c4cnc(N)nc4)ccc3n2C(C)(C)C)c1 [5-[1-tert-Butyl-2-(5-methoxy-2-1,2,4-triazol-1-yl-phenyl)-1H-benzimidazol-5-yl]-pyrimidin-2-ylamine] | – |

| Compound | IC50 [6] | other results |
| --- | --- | --- |
| CCNC(=O)Oc1ccc(-n2cncn2)c(-c2nc3cc(-c4cnc(N)nc4)ccc3n2C(C)(C)C)c1 [Ethyl-carbamic acid 3-[5-(2-amino-pyrimidin-5-yl)-1-tert-butyl-1H-benzimidazol-2-yl]-4-1,2,4-triazol-1-yl-phenyl ester] | 1.1 nM | – |

Source: patent US8420655B2, “Benzimidazole inhibitors of leukotriene production” (Boehringer Ingelheim International GmbH, priority 2009, dated 2013)
